Key:
Assay type in all cases: biochemical
[1] = target: T1, A156S mutant of the HCV NS3/4A 1b protease enzyme (Hepatitis C virus genotype 1b, UniProt P26663, A1182S); experiment: HCV protease FRET assay, A156S mutant; details: read-out: Inhibition, HCV A156S (IC50)
T1 construct: 10× stocks of NS3/4A protease enzyme from Bioenza; purchased Bioenza (Mountain View, Calif.)
Experimental: (§1) HCV Protease FRET Assay for Mutated NS3/4A 1b Enzymes
(§2) The protocol is a modified FRET-based assay (v—02) from In Vitro Resistance Studies of HCV Serine Protease Inhibitors, 2004, JBC, vol. 279, No. 17, pp 17508-17514. Inherent potency of compounds was assessed against A156S, A156T, D168A, and D168V mutants of the HCV NS3/4A 1b protease enzyme as follows: […]
(§3) 10× stocks of NS3/4A protease enzyme from Bioenza (Mountain View, Calif.) and 1.13×5-FAM/QXL™520 FRET peptide substrate from Anaspec (San Jose, Calif.) were prepared in 50 mM HEPES, pH 7.8, 100 mM NaCl, 5 mM DTT and 20% glycerol. 5 μL of each enzyme were pre-incubated in a Corning (#3573) 384-well, black, non-treated microtiter plate (Corning, N.Y.) for 30 min at 25° C. with a 0.5 μL volume of 50% DMSO and serially diluted compounds prepared in 50% DMSO. Protease reactions were started with the addition of 45 μL of the FRET substrate and monitored for 120 minutes at λex487/λem514 through Quad^4 monochromoters in a Synergy^4 plate reader from BioTek (Winooski, Vt.). At the conclusion of each assay, progress curves from each well were examined for linear reaction kinetics and fit statistics (R^2, absolute sum of squares). Initial velocity (0 minutes to 30+ minutes) from each reaction was determined from the slope of a plot of relative fluorescence units vs time (minutes) and then plotted against inhibitor concentration to estimate IC50 from log[Inhibitor] vs Response, Variable Slope model in GraphPad Prism from GraphPad Software (San Diego, Calif.). […]
(§4) The compound numbers correspond to the compound numbers in Table 3. Compounds having an activity designated as “A” provided an IC50≦10 nM; compounds having an activity designated as “B” provided an IC50>10 nM and ≦100 nM; compounds having an activity designated as “C” provided an IC50>100 nM and ≦1000 nM; and compounds having an activity designated as “D” provided an IC50>1000 nM and <10,000 nM.

[2] = target: T2, wild type HCV NS3/4A 1b protease enzyme (Hepatitis C virus genotype 1b, UniProt P26663); experiment: HCV protease FRET assay, wild type NS3/4A 1b enzyme
T2 construct: 10× stocks of NS3/4A protease enzyme from Bioenza; purchased Bioenza (Mountain View, Calif.)
Excerpt: Method B: HCV Protease FRET Assay for Wild Type and Mutated NS3/4A 1b Enzymes (IC50)
A quantitative, fluorescence resonance energy transfer (FRET)-based methodology was employed to identify HCV NS3/4A protease inhibitors. The assay employed a synthetic FRET peptide, derived from the HCV NS5A/5B cleavage site, with the HCV protease to evaluate the activity of compounds against the protease by monitoring the cleavage activity of the complex. A synthetic peptide which encompasses the NS5A-5B junction (NH2-[…]-COOH) (SEQ ID NO: 78) was labeled with Dabcyl and Edans at N- and C-termini, respectively (Invitrogen, Carlsbad, Calif.). Fluorescence measurement was used to estimate the IC50 value of the test compound. […] Upon cleavage of the FRET peptide by HCV NS3/4A proteinase complex (100 ng/mL), the fluorescence is recovered and can be continuously monitored at excitation/emission=340/490 nm.
Assay buffer: 2% CHAPS, 50 mM Tris pH 7.5, 50% glycerol, 2 uM M-2235 (Bachem) substrate. In a 50 μl reaction, add 49 μl assay buffer, 1 μl (1 U) HCV serine protease (Bioenza). Incubate 20 minutes at room temperature. The plate was read at either 350/460 nm (excitation/emission) on a fluorescent micro-plate reader or monitored at one-minute intervals to achieve the kinetic curve.
HCV Protease FRET Assay for WT and Mutated NS3/4A 1b Enzymes (IC50 —APP)
The following protocol was used to generate “apparent” IC50 (IC50—APP)) values as depicted in Table 3, below. Without wishing to be bound by any particular theory, it is believed that IC50—APP, contrasted with IC50 values, may provide a more useful indication of time-dependent inhibition, and are thus more representative of binding affinity. […] Protease reactions were immediately started after enzyme addition with the addition of 45 μL of the FRET substrate and monitored for 60-90 minutes at λex485/λem520 in a Synergy^4 plate reader from BioTek (Winooski, Vt.). […]

[3] = target: T3, D168A mutant of the HCV NS3/4A 1b protease enzyme (Hepatitis C virus genotype 1b, UniProt P26663, D1194A); experiment: HCV protease FRET assay, D168A mutant; details: read-out: Inhibition, HCV D168A (IC50)
T3 construct: 10× stocks of NS3/4A protease enzyme from Bioenza; purchased Bioenza (Mountain View, Calif.)
Experimental: as §1, §2, §3, §4

Row | SMILES | IC50 [1] [µM] | IC50 [2] [µM] | IC50 [3] [µM]
1 | C=CC(=O)N(C)C[C@H](NC(=O)OC(C)(C)C)C(=O)N1C[C@H](OC(=O)N2Cc3cccc(F)c3C2)C[C@H]1C(=O)N[C@]1(C(=O)NS(=O)(=O)C2CC2)C[C@H]1C=C [Compound 4] | < 0.01 | < 0.01 | 0.01 to 0.1
2 | C=C[C@@H]1C[C@]1(NC(=O)[C@@H]1C[C@@H](Oc2cc(-c3ccccc3)nc3cc(OC)ccc23)CN1C(=O)C(NC(=O)OC(C)(C)C)[C@@H](C)OC(=O)/C=C/C)C(=O)NS(=O)(=O)C1CC1 (stereo partly drawn) [Compound 3] | < 0.01 | < 0.01 | 0.1 to 1
3 | CC(C)(C)OC(=O)NC1CN(C(=O)CCl)CCC/C=C\[C@@H]2C[C@@]2(C(=O)NS(=O)(=O)C2CC2)NC(=O)[C@@H]2C[C@@H](OC(=O)N3Cc4cccc(F)c4C3)CN2C1=O (stereo partly drawn) [Compound 8] | < 0.01 | < 0.01 | 0.01 to 0.1
